Results as given in US8802597B2, “Herbicidal pyrimidines” (E I du Pont de Nemours and Company, priority 2003, dated 2014).
Like-named read-outs stand apart in the source and are kept apart here.

Columns and labels:
Assay in all cases: Test C pre/postemergence
Assay type in all cases: in vivo
[1] = test system: johnsongrass (Sorghum halepense); details: Sorghum halepense, pre-emergence, Preemergence, scale 0 to 100, read-out: Plant response rating, Johnsongrass
Outline: (§1)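 Applications: preemergence onto seeded soil and postemergence onto 1- to 4-leaf seedlings, compound carried in non-phytotoxic solvent plus surfactant. Kept in greenhouse 12 to 14 days. Scored visually relative to untreated controls, 0 (no effect) to 100 (complete control).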

[2] = test system: kochia (Kochia scoparia); details: Bassia scoparia; for pest or weed control at 31 g/ha: 31 g ai/ha; for pest or weed control at 62 g/ha: 62 g ai/ha; for pest or weed control at 125 g/ha: 125 g ai/ha; for pest or weed control at 250 g/ha: 250 g ai/ha
Outline: as §1

[3] = test system: lambsquarters (Chenopodium album); details: Chenopodium album; for pest or weed control at 31 g/ha: 31 g ai/ha; for pest or weed control at 62 g/ha: 62 g ai/ha; for pest or weed control at 125 g/ha: 125 g ai/ha; for pest or weed control at 250 g/ha: 250 g ai/ha
Outline: as §1

[4] = test system: pigweed (Amaranthus retroflexus); details: Amaranthus retroflexus; for pest or weed control at 31 g/ha: 31 g ai/ha; for pest or weed control at 62 g/ha: 62 g ai/ha; for pest or weed control at 125 g/ha: 125 g ai/ha; for pest or weed control at 250 g/ha: 250 g ai/ha
Outline: as §1

[5] = test system: soybean (Glycine max); details: Glycine max; for plant injury at 31 g/ha: 31 g ai/ha; for plant injury at 62 g/ha: 62 g ai/ha; for plant injury at 125 g/ha: 125 g ai/ha; for plant injury at 250 g/ha: 250 g ai/ha
Outline: as §1

[6] = test system: velvetleaf (Abutilon theophrasti); details: Abutilon theophrasti; for pest or weed control at 31 g/ha: 31 g ai/ha; for pest or weed control at 62 g/ha: 62 g ai/ha; for pest or weed control at 125 g/ha: 125 g ai/ha; for pest or weed control at 250 g/ha: 250 g ai/ha
Outline: as §1

[7] = post-emergence, Postemergence, scale 0 to 100 (0 no effect, 100 complete control), read-out: Kochia plant response rating
[8] = pre-emergence, Preemergence, scale 0 to 100, 0 no effect, 100 complete control, read-out: Plant response rating, Kochia
[9] = pre-emergence, Preemergence, scale 0 to 100, read-out: Plant response rating, Kochia
[10] = post-emergence, Postemergence, scale 0 to 100 (0 no effect, 100 complete control), read-out: Lambsquarters plant response rating
[11] = pre-emergence, Preemergence, scale 0 to 100, 0 no effect, 100 complete control, read-out: Plant response rating, Lambsquarters
[12] = pre-emergence, Preemergence, scale 0 to 100, read-out: Plant response rating, Lambsquarters
[13] = post-emergence, Postemergence, scale 0 to 100 (0 no effect, 100 complete control), read-out: Pigweed plant response rating
[14] = pre-emergence, Preemergence, scale 0 to 100, 0 no effect, 100 complete control, read-out: Plant response rating, Pigweed
[15] = pre-emergence, Preemergence, scale 0 to 100, read-out: Plant response rating, Pigweed
[16] = post-emergence, Postemergence, scale 0 to 100 (0 no effect, 100 complete control), read-out: Soybean plant response rating
[17] = pre-emergence, Preemergence, scale 0 to 100, 0 no effect, 100 complete control, read-out: Plant response rating, Soybean
[18] = pre-emergence, Preemergence, scale 0 to 100, read-out: Plant response rating, Soybean
[19] = post-emergence, Postemergence, scale 0 to 100 (0 no effect, 100 complete control), read-out: Velvetleaf plant response rating
[20] = pre-emergence, Preemergence, scale 0 to 100, 0 no effect, 100 complete control, read-out: Plant response rating, Velvetleaf
[21] = pre-emergence, Preemergence, scale 0 to 100, read-out: Plant response rating, Velvetleaf

With COC(=O)c1nc(C2CC2)nc(N)c1Cl [Compound 9, methyl 6-amino-5-chloro-2-cyclopropyl-4-pyrimidinecarboxylate] the pest or weed control at 125 g/ha ([1]; 125 g ai/ha) was 65%, the pest or weed control at 250 g/ha ([1]; 250 g ai/ha) was 90% and the pest or weed control at 31 g/ha ([2]; post-emergence, Postemergence, read-out: Plant response rating (scale of 0 to 100), Kochia) was 95%. The pest or weed control at 62 g/ha [2, 7] was 100%, the pest or weed control at 125 g/ha [2, 7] was 100% and the pest or weed control at 250 g/ha ([2]; post-emergence, Postemergence, scale 0 to 100, read-out: Plant response rating, Kochia) was 100%. The pest or weed control at 31 g/ha [2, 8] was 95%, the pest or weed control at 62 g/ha [2, 8] was 95% and the pest or weed control at 125 g/ha [2, 9] was 100%. For the same compound, the pest or weed control at 250 g/ha [2, 9] was 100%, the pest or weed control at 31 g/ha ([3]; post-emergence, Postemergence, read-out: Plant response rating (scale of 0 to 100), Lambsquarters) was 90% and the pest or weed control at 62 g/ha [3, 10] was 95%. For the same compound, the pest or weed control at 125 g/ha [3, 10] was 100%, the pest or weed control at 250 g/ha ([3]; post-emergence, Postemergence, scale 0 to 100, read-out: Plant response rating, Lambsquarters) was 100% and the pest or weed control at 31 g/ha [3, 11] was 95%. For the same compound, the pest or weed control at 62 g/ha [3, 11] was 100%, the pest or weed control at 125 g/ha [3, 12] was 100% and the pest or weed control at 250 g/ha [3, 12] was 100%. The pest or weed control at 31 g/ha ([4]; post-emergence, Postemergence, read-out: Plant response rating (scale of 0 to 100), Pigweed) was 55%, the pest or weed control at 62 g/ha [4, 13] was 70% and the pest or weed control at 125 g/ha [4, 13] was 100%. The pest or weed control at 250 g/ha ([4]; post-emergence, Postemergence, scale 0 to 100, read-out: Plant response rating, Pigweed) was 100%, the pest or weed control at 31 g/ha [4, 14] was 95% and the pest or weed control at 62 g/ha [4, 14] was 95%. It also gave a pest or weed control at 125 g/ha [4, 15] of 100%, a pest or weed control at 250 g/ha [4, 15] of 100% and a plant injury at 31 g/ha ([5]; post-emergence, Postemergence, read-out: Plant response rating (scale of 0 to 100), Soybean) of 95%. The plant injury at 62 g/ha [5, 16] was 100%, the plant injury at 125 g/ha [5, 16] was 100% and the plant injury at 250 g/ha ([5]; post-emergence, Postemergence, scale 0 to 100, read-out: Plant response rating, Soybean) was 100%. For the same compound, the plant injury at 31 g/ha [5, 17] was 100%, the plant injury at 62 g/ha [5, 17] was 100% and the plant injury at 125 g/ha [5, 18] was 100%. For the same compound, the plant injury at 250 g/ha [5, 18] was 100%, the pest or weed control at 31 g/ha ([6]; post-emergence, Postemergence, read-out: Plant response rating (scale of 0 to 100), Velvetleaf) was 0% and the pest or weed control at 62 g/ha [6, 19] was 75%. It also gave a pest or weed control at 125 g/ha [6, 19] of 80%, a pest or weed control at 250 g/ha ([6]; post-emergence, Postemergence, scale 0 to 100, read-out: Plant response rating, Velvetleaf) of 95% and a pest or weed control at 31 g/ha [6, 20] of 70%. For the same compound, the pest or weed control at 62 g/ha [6, 20] was 95%, the pest or weed control at 125 g/ha [6, 21] was 100% and the pest or weed control at 250 g/ha [6, 21] was 100%.
